Data published in US20120035187A1 (priority 2009, published 2012).

How the values were obtained:
[1] = system: ICR mice injected with amyloid β fragment; test: Novelty object recognition test, mouse injected with amyloid β fragment (Alzheimer's dementia model); type: in vivo; details: for adverse effect / novelty object recognition test (in words): mice injected with amyloid β fragment; for adverse effect: i.p. once a day over 13 days; for novelty object recognition test (in words): vs amyloid β fragment alone; for Index for object discrimination: mouse administered with amyloid β fragment
Method: One hundred of ICR mice (male, five weeks of age, body weight of 25 to 30 g, commercialized by Charles Liver Laboratories Japan Inc., Kanagawa, Japan) were randomly divided into 10 groups, each consisting 10 heads, and raised separately until the experiment was terminated. […] A micro syringe with an […] stainless needle (3 mm length) was used for injection. The injection site was determined by confirming the staining at right-and-left lateral ventricles of the frontal section, dorsal third ventricle, and ventral third ventricle by injecting an Evans' Blue solution (0.3 μg/0.3 μl) in place of the solution of amyloid β fragment.
The test, which consists of three parts of acclimation, practicing trial, and holding trial, was operated at six to eight days after administering amyloid β fragment into the subjects' ventricles. The experiment apparatus (40 cm in depth, 30 cm in width and 30 cm in height), in which the floor was paved with wood tips, was placed in a noiseless place under an illumination of about 1,000 lux. On the 6th day after the administration, a mouse was placed in the center of the apparatus without seeking object and allowed to seek freely for 10 minutes (acclimation). After 24 hours (on the 7th day after the administration), two objects (objects A and B) were placed in the apparatus at a position 10-cm apart from the lateral side, and the mouse was placed in the center of the apparatus and allowed to seek freely for 10 minutes (practicing trial). After 24 hours (on 8th day after the administration), object A (memorized object) sought by the mouse on the previous day was placed at the same position of object A as placed on the previous day, and object C (novel object) different from object B used on the previous day […] of object B as placed on the previous day, and then the mouse was placed in the center of the apparatus and allowed to seek freely for 10 minutes (holding trial). When the mouse directed its muffle close to the object within 2 cm apart from the object or allowed its muffle to contact with the object, the mouse was judged to be seeking, and the seeking time thereof was measured with a stopwatch. The object discrimination index [={(seeking time for novel object)−(seeking time for memorized object)}/{(seeking time for novel object)+(seeking time for memorized object)}] was calculated. The object discrimination index means the ratio of increase in seeking time for novel object to the total seeking time, which becomes longer when the memory of the once sought object is more strongly held and becomes shorter when the memory is more weakly held.

[2] = system: ICR mice injected with amyloid β fragment; test: Passive avoidance test, mouse injected with amyloid β fragment; type: in vivo; details: for passive avoidance test (in words): mice injected with amyloid β fragment, vs amyloid β fragment alone; for Passive avoidance reaction: mouse administered with amyloid β fragment
Method: One hundred of ICR mice (male, five weeks of age, body weight of 25 to 30 g, commercialized by Charles Liver Laboratories Japan Inc., Kanagawa, Japan) were randomly divided into 10 groups, each consisting 10 heads, and raised separately until the experiment was terminated. Mice, which had been anesthetized with chloral hydrate (administered into the abdominal cavity in an amount of 350 mg/kg body weight, commercialized by SIGMA Corporation, Tokyo, Japan), were fixed at their dorsal decubitis parts, incised along their medial heads, and after confirming born suture, 9 nmol/6 μl/mouse of a solution of amyloid β fragment (β-Amyloid25-35), represented by amino acid sequence of SEQ ID No.: 1, was injected into their brain ventricles by puncturing at 1.0-mm left side and 0.5-mm backside from bregmas with a depth of 3 mm (the administration method is referred to “Brain Research”, Vol. 706, pp. 181-193 (1996)). A micro syringe with an […] stainless needle (3 mm length) was used for injection. The injection site was determined by confirming the staining at right-and-left lateral ventricles of the frontal section, dorsal third ventricle, and ventral third ventricle by injecting an Evans' Blue solution (0.3 μg/0.3 μl) in place of the solution of amyloid β fragment. The scalps were sutured after injection, any one of the compounds was administered intraperitoneally once a day over 13 days, and the behavioral score was determined by the method described below.
The captioned test is the one for evaluating animals' avoidance behavior to the once experienced aversive stimulus (electric stimulus) as an index of memory. In this experiment, step-through test was selected as a passive avoidance test, which uses the nature of mouse who favors dark room. Using an apparatus having a bright room and a dark room connected via a door, a mouse was placed in the bright room, and measured a time required for moving into the dark room as an index of memory. The passive avoidance test was performed on 9 to 12 days after the injection of amyloid β fragment into the ventricle. On the 9th day after the administration, the mouse was placed in the bright room (1,000 lux, 30-cm in depth, 30-cm in width and 15-cm in height) for a minute, and then placed in the dark room (30-cm in depth, 30-cm in width and 15-cm in height) for two minutes to be acclimatized. On the 10th day after the administration, the mouse was further acclimatized similarly as above. On the 11th day after the administration, the mouse was placed in the center of the bright room, and when the mouse moved into the dark room, the door between the rooms was immediately closed and the electric stimulus (0.8 mA, for a second) was given to the mouse. After 24 hours (on the 12th day after the administration), the mouse was placed in the center of the bright room as had been placed in the previous day, and the time required for moving into the dark room was measured as a passive avoidance reaction. When the mouse memorized the aversive electric stimulus, the passive avoidance reaction was elongated.

[3] = Peroxyl radical-scavenging activity, ESR (AAPH)
Method: Stock solutions, prepared by dissolving NK-4, NK-19, NK-53, NK-100, and NK-557 in DMSO, were respectively diluted with 0.1 M phosphate buffer to give concentrations of […] higher than those in Table 15 and used as test sample solutions. To 50 μl of 0.1 M phosphate buffer (pH 7.4), 50 μl of 180 mM DMPO ([…]) commercialized by Dojindo Laboratories, Kumamoto, Japan, 50 μl of any one of the test sample solutions, and 50 μl of 100 mM AAPH, commercialized by Wako Pure Chemical Industries, Osaka, Japan, were added, mixed for 10 seconds using a vortex mixer and allowed to react in an incubator controlled at 37° for two minutes and 50 seconds. After 30 seconds from completion of the reaction, the resulting reaction mixture was subjected to ESR measurement.
The reaction mixture for measuring hydroxyl or peroxyl radicals was poured into a flat quartz cell for ESR, set to “FREE RADICAL MONITOR JES-FR30”, an ESR apparatus commercialized by JOEL Ltd., Tokyo, Japan, and ESR was measured according to manual manner. The residual ratio of peroxyl radical (%) was determined as a relative value by defining the ESR value, obtained by using 0.1 M phosphate buffer as a substitute of the test sample solution, as 100. The results are in Tables 14 and 15. […] Therefore, the IC50 of edaravone was determined by another test using its higher concentration, and the result is also shown in Table 14. The conditions of the ESR measurement were set as follows: […]

[4] = 50 μg/kg body weight i.p. once a day
[5] = 500 μg/kg body weight i.p. once a day
[6] = compound concentration 25 μg/ml
[7] = compound concentration 50 μg/ml

| Structure (SMILES) | adverse effect [1] | novelty object recognition test (in words) [1, 4] | Index for object discrimination ([1]; dose 5 μg/kg body weight) | Index for object discrimination ([1]; dose 50 μg/kg body weight) | Index for object discrimination ([1]; dose 500 μg/kg body weight) | passive avoidance test (in words) [2, 4] | passive avoidance test (in words) [2, 5] | Passive avoidance reaction ([2]; dose 5 μg/kg body weight) | Passive avoidance reaction ([2]; dose 50 μg/kg body weight) | Passive avoidance reaction ([2]; dose 500 μg/kg body weight) | IC50 (μg/ml) of peroxyl radical-scavenging activity [3] | Residual ratio of peroxyl radical (%) ([3]; compound concentration 5 μg/ml) | Residual ratio of peroxyl radical (%) [3, 6] | Residual ratio of peroxyl radical (%) [3, 7] | novelty object recognition test (in words) [1, 5] |
| --- | --- | --- | --- | --- | --- | --- | --- | --- | --- | --- | --- | --- | --- | --- | --- |
| CCCCN1C=C/C(=C/C=C(/C=C/c2cc[n+](CCCC)c3ccccc23)c2cc[n+](CCCC)c3ccccc23)c2ccccc21 [NK-26] | No adverse effect | significant improvement | 0.05 ± 0.08 | 0.19 ± 0.07 | 0.11 ± 0.08 | significant improvement | significant improvement | 84 ± 25 s | 160 ± 14 s | 144 ± 13 s | – | – | – | – | – |
| CC[n+]1ccccc1/C=C/c1ccc(N(C)C)cc1 [NK-557] | – | – | – | – | – | – | – | – | – | – | 50< μg/ml | 90 ± 9% | 58 ± 5 % | 66 ± 8 % | – |
| CCN1C=CC(=CC=C(C=Cc2cc[n+](CC)c3ccccc23)c2cc[n+](CC)c3ccccc23)c2ccccc21.[I-].[I-] [NK-4] | No adverse effect | – | – | 0.15 ± 0.07 | 0.41 ± 0.08 | significant improvement | significant improvement | – | 135 ± 24 s | 164 ± 16 s | 4.7 µg/mL | 46 ± 9 % | 17 ± 1 % | 16 ± 0 % | significant improvement |
| CCN1/C(=C/C=C(/C=C/c2sc3ccccc3[n+]2CC)c2sc3ccccc3[n+]2CC)Sc2ccccc21.[I-].[I-] [NK-100] | – | – | – | – | – | – | – | – | – | – | 50< μg/ml | 86 ± 15% | 86 ± 15% | 76 ± 7 % | – |
| CCCN1C=CC(=CC=C(C=Cc2cc[n+](CCC)c3ccccc23)c2cc[n+](CCC)c3ccccc23)c2ccccc21.[I-].[I-] [NK-234] | No adverse effect | – | – | – | 0.29 ± 0.07 | – | significant improvement | – | – | 166 ± 8 s | – | – | – | – | significant improvement |
